# Measurements as given in the METLIN SMRT retention time set (Domingo-Almenara et al. 2019).
# Assay: gradient 5% acetonitrile 3 min, to 50% in 2 min, to 85% in 15 min, held 3 min, 100 µL/min
# Conditions: column: Zorbax Extend-C18 2.1 x 50 mm; eluents: water / acetonitrile, 0.1% formic acid
# How it was run: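 Pure standards were run in mixtures of ~100 molecules by HPLC coupled to a quadrupole time-of-flight mass spectrometer. The column was a Zorbax Extend-C18 (2.1 × 50 mm, 1.8 μm) at 100 μL/min, with water and acetonitrile each containing 0.1% formic acid, in positive and negative ionization mode. Dead and dwell volumes were 40 μL and 900 μL. Retention time was taken from computationally picked adduct peaks, each manually inspected, with data collected over 3 months.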
row,SMILES,RP-LC retention time [s]
1,CCCn1cc(S(=O)(=O)N2CCN(c3ccccc3Cl)CC2)c2cccnc21,1150
2,Cc1cccc(-c2nnc(-c3nc(NC4CCS(=O)(=O)C4)c4ccccc4n3)o2)c1 (stereo not given),821
3,Cc1ccc(CNC(=O)CCNc2c(-c3cccc(F)c3)nc3cnccn23)o1,700
4,O=C(Nc1ccc(F)cc1)C1CCCN(S(=O)(=O)c2c[nH]c(C(=O)N3CCCC3)c2)C1 (stereo not given),787
5,COc1cc(-c2nc3ncccn3c2NC2CCCC2)cc(OC)c1OC,705
6,O=C(NCc1ccc(Cl)cc1)c1c(O)c2cccnc2[nH]c1=O,1000
7,O=C(Nc1ccc(N2CCOCC2)cc1)C1CCN(c2cncnc2N2CCCC2)CC1,602
8,O=C(c1ccsc1)N1CCN(Cc2ccc(=O)n(CC3CC3)c2)CC1,543
9,CCc1ccc(NS(=O)(=O)c2cc3c(s2)CCN(C(=O)C2CCC2)C3)cc1,859
10,Fc1cc(F)cc(-c2noc3ncnc(N4CCN(c5ccccn5)CC4)c23)c1,678
11,COc1ccc(S(=O)(=O)N2CCCC(C(=O)NCCC3=CCCCC3)C2)cc1Cl (stereo not given),1070
12,CCNc1cc(N2CCCC(CCC(=O)NCCC(C)C)C2)ncn1 (stereo not given),662
13,COc1ccc(C2Cn3cnc(C(=O)N4CCC(C(=O)NC(C)c5ccccc5)CC4)c3CO2)cc1 (stereo not given),751
14,CCN1CCn2cc(S(=O)(=O)Nc3cccc(C(=O)OC)c3)cc2C1=O,703
15,Cc1oc(C2CCN(C(=O)Cn3cnc4c3c(=O)n(C)c(=O)n4C)CC2)nc1C(=O)N1CCCC1,619
16,COc1ccc(C(CC(=O)N2CCCCC2)N2Cc3ccccc3C2=O)cc1OC (stereo not given),771
17,CCCn1cc(-c2ccncc2)cc1C(=O)Nc1ccc(NC(C)=O)cc1,594
18,CNC(Cc1ccccc1)c1ccc(OC)cc1 (stereo not given),567
19,CC(=O)N1CCc2[nH]c3ccc(C(=O)Nc4ccc(N5CCOCC5)cc4)cc3c2C1,654
20,CC1CCN(S(=O)(=O)c2ccc(-c3nnc(C(=O)NCC4CCCO4)o3)cc2)CC1 (stereo not given),865
21,COc1cccc(CNC(=O)C2(C)CCN(C(=O)NCC3CCCO3)CC2)c1 (stereo not given),668
22,COC(=O)c1ccc(NC(=O)C(=O)NCCc2ccc(N3CCCC3)cc2)cc1,910

row,SMILES,RP-LC retention time [s]
1,Cc1cc(N2CCN(c3ccccn3)CC2)n2nc(C(F)(F)F)c(-c3ccccc3)c2n1,855
2,Cc1ccc(Nc2c(-c3ccc(N4CCOCC4)cc3)nc3ccc(Cl)cn23)cc1,777
3,CC(C)n1cnc(S(=O)(=O)N2CCCC(C(=O)Nc3ccccc3F)C2)c1 (stereo not given),772
4,O=C(NCc1ccc2c(c1)OCO2)C1CCCN(c2ncc(-c3ccc(F)cc3)cn2)C1 (stereo not given),998
5,COc1ccc(C(=O)NC2CCN(c3cc(-c4cccs4)[nH]n3)C2)cc1 (stereo not given),703
6,O=C(Nc1ccccc1)N[C@H]1C[C@H](C(=O)O)Nc2cc(Cl)cc(Cl)c21,799
7,COC(=O)c1c(C)[nH]c(C(=O)N2CCC(CC(=O)NC(C)CCc3ccccc3)CC2)c1C (stereo not given),880
8,Cc1ccc(N(Cc2nc3nc(C)cc(C)n3n2)C(=O)c2cccs2)cc1,802
9,CN(C)CCNC(=O)c1ccc2c(c1)N(Cc1ccc(F)cc1)C(=O)CO2,616
10,Cc1cc2c(cc(C(=O)N3CCC(C(=O)NC4CCCC4)CC3)n2Cc2c(F)cccc2Cl)o1,998
11,Cc1nnc2c(NC(=O)c3ccccn3)cccn12,659
12,COc1ccc(-c2cc(C(=O)Nc3ccc(F)cc3)nn2C2CCS(=O)(=O)C2)cc1 (stereo not given),930
13,CCOc1ccc(N2CCn3c2nn(CC(=O)c2ccc(OC)cc2)c(=O)c3=O)cc1,773
14,COc1ccc(CC(=O)NC2CCN(c3cc(-c4ccc(F)cc4)[nH]n3)C2)cc1OC (stereo not given),670
15,COc1cccc(-c2cn3ccn(-c4ccc(OC)c(Cl)c4)c(=O)c3n2)c1,850
16,O=C(Cn1cccc(-c2nc(-c3ccc(F)cc3)no2)c1=O)Nc1ccc(F)cc1F,875
17,CC(C)C(=O)NCCc1csc(C2CCN(C(=O)NC(C)(C)C)CC2)n1,681
18,O=C(Cn1cnc2c(sc3nc(-c4ccccc4)ccc32)c1=O)Nc1ccc(F)c(Cl)c1,1110
19,CCC(C)C(NC(=O)Cc1cccc(F)c1)C(=O)Nc1nc2ccccc2[nH]1 (stereo not given),736
20,Cc1oc(-c2[nH]ncc2C(=O)N2CCCC2)cc1S(=O)(=O)NCc1ccco1,651
21,CC(C)(C)c1cc(C(C)(C)C)c2c(c1)C(O)(C(F)(F)F)C(=O)O2 (stereo not given),1250
22,CN(C)CCNC(=O)c1ccc(Cn2nc(N3CCN(c4ccc(F)cc4)CC3)ccc2=O)o1,588

row,SMILES,RP-LC retention time [s]
1,CCCn1c(=O)sc2cc(S(=O)(=O)N3CCC(C(=O)N4CCN(C)CC4)CC3)ccc21,628
2,O=C(NCc1ccco1)C1CCCN(S(=O)(=O)Cc2ccc(Cl)cc2)C1 (stereo not given),888
3,CNC(=O)C1CCCN(c2nc3ncn(CC(=O)Nc4ccc5c(c4)OCCO5)c(=O)c3s2)C1 (stereo not given),627
4,O=C1CCCC(=O)N1CCS(=O)(=O)N1CCC(c2nnc(-c3ccco3)s2)CC1,671
5,CCOC(=O)CC(=O)Nc1nnc(SCc2nnc(-c3ccccc3C)o2)s1,817
6,CCCc1noc(-c2cccn3c(CC(=O)N4CCSCC4)nnc23)n1,653
7,Cc1ccc(CNC(=O)C2(C)CCCN(C(=O)Nc3cccc(C)c3)C2)cc1 (stereo not given),967
8,Cn1nc(CNC(=O)c2ccsc2)c2ccccc21,735
9,COc1ccc(OC)c(CNC(=O)c2cnc(OC)nc2)c1,700
10,Cc1[nH]c(-c2ccc(Cl)cc2)cc1C(=O)N1CCC(C)CC1,1010
11,Cc1ccc(Cn2c(N3CCCC(C(=O)Nc4ccc(C)cc4)C3)nc3ccsc3c2=O)cc1 (stereo not given),1080
12,COCCCNC(=O)c1cc(-c2ccccc2)nc2n[nH]c(-c3ccccc3)c12,769
13,CCC(O)c1nc2ccccc2n1CC(=O)N(C)c1ccccc1 (stereo not given),624
14,Cc1nc(-c2cc(S(=O)(=O)N3CCC(C(=O)NCCc4cccs4)CC3)c(C)s2)no1,919
15,Cc1ccc(NS(=O)(=O)c2ccc(-c3c(C)noc3C)cc2)c(Br)c1,1020
16,Cc1cc(Cl)ccc1S(=O)(=O)N1CCC2(CC1)NCCCN=C2NC1CCCC1,810
17,COc1ccc(Nc2n[nH]nc2C(=O)Nc2ccccc2Br)cc1,1050
18,COc1cc(OC)cc(C(=O)NCC2(O)CCOCC2)c1,589
19,CC(C)CCNC(=O)CN1C(=O)CCn2nc(-c3cn(C)c4ccccc34)cc21,807
20,O=C(CCCc1ccccc1)N1CCCC1c1nc(-c2ccccc2)no1 (stereo not given),694
21,c1ccc(COCC2CCN(Cc3ccccc3)CC2)cc1,588
